Measurements taken from patent publication US8927559B2, “Quinazolinone-type compounds as CRTH2 antagonists” (Merck Sharp & Dohme Corp., priority 2010, dated 2015).
Values joined by “and” are separate entries in the source; they are usually repeats but may differ in a detail not shown here. Equal entries are not always repeated. Where two headings read alike, the source gives them in different places.

Target: T1, CRTH2 receptor (hCRTH2) (Homo sapiens, UniProt Q9Y5Y4)
T1 construct: expressed in transfected cells; host or cells: HEK cells (HEK-hCRTH2 cell line), membranes
T1 sequence (Q9Y5Y4 1-395): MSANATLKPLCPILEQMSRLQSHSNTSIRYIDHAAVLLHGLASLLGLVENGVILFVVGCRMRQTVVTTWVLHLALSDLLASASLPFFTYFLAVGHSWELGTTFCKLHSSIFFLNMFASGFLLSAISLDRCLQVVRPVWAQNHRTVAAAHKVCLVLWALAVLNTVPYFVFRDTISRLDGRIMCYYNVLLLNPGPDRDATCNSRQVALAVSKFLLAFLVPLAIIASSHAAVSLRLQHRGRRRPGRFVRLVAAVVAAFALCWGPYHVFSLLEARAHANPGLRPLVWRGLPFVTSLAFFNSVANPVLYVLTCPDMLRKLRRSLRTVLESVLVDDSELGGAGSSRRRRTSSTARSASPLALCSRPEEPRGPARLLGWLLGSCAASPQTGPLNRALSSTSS
Experiment: Radioligand binding assay ([3H]PGD2 competition, membranes of HEK-hCRTH2 cell line)
Conditions: 3.0 nM [3H]PGD2, HEK-hCRTH2 membranes, 60 min, room temperature
Procedure, shortened: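 Membranes (8-20 μg protein) from HEK cells expressing human CRTH2 were incubated with [3H]PGD2 and competitor in 1% DMSO for 60 min at room temperature. Non-specific binding was defined with excess PGD2. Bound radioactivity was separated by filtration and counted by melt-on scintillation.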

SMILES	Ki (Ki)	Ki (read-out: Ki)
CC1(c2ccc(Cl)cc2)CC(c2ccc3c(=O)n(-c4ccc(F)cc4)c(CCCCC(=O)O)nc3c2)=NO1 (stereo not shown) [Example 120]	≤ 10 nM	
O=C(O)CCCCc1nc2cc(C3=NOC4(CCc5ccccc54)C3)ccc2c(=O)n1-c1ccc(F)cc1 (stereo not shown) [Example 143]		10 to 50 nM
CC1(C(=O)Nc2cc(F)ccc2O)CC(c2ccc3c(=O)n(-c4ccc(F)cc4)c(CCCCC(=O)O)nc3c2)=NO1 (stereo not shown) [Example 166]		≤ 10 nM
O=C(O)CCCCc1nc2cc(C3=NOC(c4nc5ccccc5o4)C3)ccc2c(=O)n1-c1ccc(F)cc1 (single isomer, unassigned) [Example 28E, 5-(7-(5-(benzo[d]oxazol-2-yl)-4,5-dihydroisoxazol-3-yl)-3-(4-fluorophenyl)-4-oxo-3,4-dihydroquinazolin-2-yl)pentanoic acid]		≤ 10 nM
CCC(c1ccc(F)cc1)c1cc(-c2ccc3c(=O)n(-c4ccc(F)cc4)c(CCCCC(=O)O)nc3c2)no1 (stereo not shown) [Example 261]		≤ 10 nM
O=C(O)CCCCc1nc2cc(-c3cc(CSc4nc5ccccc5[nH]4)on3)ccc2c(=O)n1-c1ccc(F)cc1 [Example 39K]		≤ 10 nM
O=C(O)CCCCc1nc2cc(-c3cc(Cc4ccc5ccccc5c4)on3)ccc2c(=O)n1-c1ccc(F)cc1 [Example 25J]		≤ 10 nM
CC1(c2nc3ccc(F)cc3[nH]2)CC(c2ccc3c(=O)n(-c4ccc(F)cc4)c(CCCCC(=O)O)nc3c2)=NO1 (stereo not shown) [Example 174]		≤ 10 nM
CC1(c2nc3cc(Cl)c(F)cc3[nH]2)CC(c2ccc3c(=O)n(-c4ccc(F)cc4)c(CCCCC(=O)O)nc3c2)=NO1 (stereo not shown) [Example 197]		≤ 10 nM
O=C(O)CCCCc1nc2cc(-n3cc(C4CC4)nn3)ccc2c(=O)n1-c1ccc(F)cc1 [Example 21, 5-[7-(4-cyclopropyl-1H-1,2,3-triazol-1-yl)-3-(4-fluorophenyl)-4-oxo-3,4-dihydroquinazolin-2-yl]pentanoic acid]		≤ 10 nM
CC1(C(O)c2ccc(C#N)cc2)CC(c2ccc3c(=O)n(-c4ccc(F)cc4)c(CCCCC(=O)O)nc3c2)=NO1 (stereo not shown) [Example 132]		10 to 50 nM
O=C(O)CCCCc1nc2cc(C3=NOC(c4ccccn4)C3)ccc2c(=O)n1-c1ccc(Cl)cc1 (stereo not shown) [Example 15L]		≤ 10 nM
O=C(O)CCCCc1nc2cc(C3=NOC[C@@H](c4ccc(F)cc4)N3)ccc2c(=O)n1-c1ccc(F)cc1 [Example 37, (R)-5-(3-(4-fluorophenyl)-7-(5-(4-fluorophenyl)-5,6-dihydro-4H-1,2,4-oxadiazin-3-yl)-4-oxo-3,4-dihydroquinazolin-2-yl)pentanoic acid]		≤ 10 nM
O=C(O)CCCCc1nc2cc(-c3cc([C@H](O)c4ccccc4)on3)ccc2c(=O)n1-c1ccc(F)cc1 [Example 102]		≤ 10 nM
C[C@@]1(C(=O)Nc2ccc(F)cc2O)CC(c2ccc3c(=O)n(-c4ccc(F)cc4)c(CCCCC(=O)O)nc3c2)=NO1 [Example 231]		≤ 10 nM
CC(C)(C)c1ccc(-c2nc(-c3ccc4c(=O)n(-c5ccc(F)cc5)c(CCCCC(=O)O)nc4c3)no2)cc1 [Example 14C]		10 to 50 nM
CC1(c2nc3ccccc3o2)CC(c2ccc3c(=O)n(-c4ccc(Cl)cc4)c(CCCCC(=O)O)nc3c2)=NO1 (stereo not shown) [Example 116]		≤ 10 nM
O=C(O)CCCCc1nc2cc(C3=NO[C@@H](c4nc5ccc(Cl)cc5s4)C3)ccc2c(=O)n1-c1ccc(F)cc1 [Example 155]		≤ 10 nM
O=C(O)CCCCc1nc2cc(-c3noc(-c4ccncc4)n3)ccc2c(=O)n1-c1ccc(F)cc1 [Example 14, 5-{3-(4-fluorophenyl)-4-oxo-7-[5-(pyridin-4-0)-1,2,4-oxadiazol-3-yl]-3,4-dihydroquinazolin-2-yl}pentanoic acid]		10 to 50 nM and 17.2 nM
O=C(O)CCCCc1nc2cc(-c3cc(C(O)c4ccc5ccccc5n4)on3)ccc2c(=O)n1-c1ccc(F)cc1 (stereo not shown) [Example 25G]		≤ 10 nM
O=C(O)CCCCc1nc2cc(-c3noc(C4CCc5ccccc5C4)n3)ccc2c(=O)n1-c1ccc(F)cc1 (stereo not shown) [Example 246]		≤ 10 nM
O=C(O)CCCCc1nc2cc(-c3cc(-c4ccc(Br)cc4)on3)ccc2c(=O)n1-c1ccc(F)cc1 [Example 157]		10 to 50 nM
C=C(c1ccc(F)cc1)c1cc(-c2ccc3c(=O)n(-c4ccc(F)cc4)c(CCCCC(=O)O)nc3c2)no1 [Example 250]		≤ 10 nM
CC(O)(c1cccc(F)c1)c1cc(-c2ccc3c(=O)n(-c4ccc(F)cc4)c(CCCCC(=O)O)nc3c2)no1 (stereo not shown) [Example 130]		≤ 10 nM
C[C@@]1(c2cc3ccccn3n2)CC(c2ccc3c(=O)n(-c4ccc(F)cc4)c(CCCCC(=O)O)nc3c2)=NO1 [Example 201]		≤ 10 nM
O=C(O)CCCCc1nc2cc(C3=NOC(c4nc5ccc(Cl)cc5o4)C3)ccc2c(=O)n1-c1ccc(F)cc1 (stereo not shown) [Example 150]		≤ 10 nM

SMILES	Ki (Ki)	Ki (read-out: Ki)
CC(c1ccccc1)C1(C)CC(c2ccc3c(=O)n(-c4ccc(F)cc4)c(CCCCC(=O)O)nc3c2)=NO1 (single isomer, unassigned) [Example 42E, 5-(3-(4-fluorophenyl)-7-(5-methyl-5-(1-phenylethyl)-4,5-dihydroisoxazol-3-yl)-4-oxo-3,4-dihydroquinazolin-2-yl)pentanoic acid]		≤ 10 nM
CC1(c2ccccc2)CC(c2ccc3c(=O)n(-c4ccc(Cl)cc4)c(CCCCC(=O)O)nc3c2)=NO1 (stereo not shown) [Example 15i]		≤ 10 nM
CC1(c2ccc(C#N)cc2)CC(c2ccc3c(=O)n(-c4ccc(F)cc4)c(CCCCC(=O)O)nc3c2)=NO1 (stereo not shown) [Example 114]		≤ 10 nM
C[C@@]1(c2nc3cc(C(F)(F)F)ccc3[nH]2)CC(c2ccc3c(=O)n(-c4ccc(F)cc4)c(CCCCC(=O)O)nc3c2)=NO1 [Example 196]		≤ 10 nM
COc1cccc(C2CC(c3ccc4c(=O)n(-c5ccc(F)cc5)c(CCCCC(=O)O)nc4c3)=NO2)c1 (stereo not shown) [Example 15N]		≤ 10 nM
O=C(O)CCCCc1nc2cc(-c3cn(Cc4ccc(F)cc4)nn3)ccc2c(=O)n1-c1ccc(F)cc1 [Example 19, 5-{7-[1-(4-fluorobenzyl)-1H-1,2,3-triazol-4-yl]-3-(4-fluorophenyl)-4-oxo-3,4-dihydroquinazolin-2-yl}pentanoic acid]		≤ 10 nM
C[C@]1([C@H](O)c2cccc(C#N)c2)CC(c2ccc3c(=O)n(-c4ccc(F)cc4)c(CCCCC(=O)O)nc3c2)=NO1 [Example 138]		10 to 50 nM
CC1(c2cccc(C#N)c2)CC(c2ccc3c(=O)n(-c4ccc(F)cc4)c(CCCCC(=O)O)nc3c2)=NO1 (stereo not shown) [Example 119]	≤ 10 nM	
O=C(O)CCCCc1nc2cc(-c3cc(COCc4ccc(F)cc4)on3)ccc2c(=O)n1-c1ccc(F)cc1 [Example 278]		10 to 50 nM
C[C@@]1(c2nc3ccc(F)cc3[nH]2)CC(c2ccc3c(=O)n(-c4ccc(Cl)cc4)c(CCCCC(=O)O)nc3c2)=NO1 [Example 220]		≤ 10 nM
CC1(c2nc3cc(F)c(F)cc3[nH]2)CC(c2ccc3c(=O)n(-c4ccc(F)cc4)c(CCCCC(=O)O)nc3c2)=NO1 (stereo not shown) [Example 194]		≤ 10 nM
O=C(O)CCCCc1nc2cc(-c3cc(COCc4cc(F)cc(F)c4)on3)ccc2c(=O)n1-c1ccc(F)cc1 [Example 269]		≤ 10 nM
CC(c1ccc(F)cc1)c1nc(-c2ccc3c(=O)n(-c4ccc(F)cc4)c(CCCCC(=O)O)nc3c2)no1 (stereo not shown) [Example 249]		10 to 50 nM
C[C@]1(c2nc3ccc(F)cc3[nH]2)CC(c2ccc3c(=O)n(-c4ccc(F)cc4)c(CCCCC(=O)O)nc3c2)=NO1 [Example 183]		10 to 50 nM
O=C(O)CCCCc1nc2cc(-c3cc(CSc4ccccn4)on3)ccc2c(=O)n1-c1ccc(F)cc1 [Example 39G]		10 to 50 nM
O=C(O)CCCCc1nc2cc(-c3cn(-c4ccc(F)cc4)nn3)ccc2c(=O)n1-c1ccc(F)cc1 [Example 105]		≤ 10 nM
O=C(O)CCCCc1nc2cc(C3=NOC4(CCCCC4)C3)ccc2c(=O)n1-c1ccc(Cl)cc1 [Example 15Y]		≤ 10 nM
CC1(c2ccncc2)CC(c2ccc3c(=O)n(-c4ccc(F)cc4)c(CCCCC(=O)O)nc3c2)=NO1 (stereo not shown) [Example 252]		≤ 10 nM
C[C@]1(C(=O)Nc2cc(F)ccc2O)CC(c2ccc3c(=O)n(-c4ccc(F)cc4)c(CCCCC(=O)O)nc3c2)=NO1 [Example 189]		≤ 10 nM
CC1(C(=O)N2Cc3ccccc3C2)CC(c2ccc3c(=O)n(-c4ccc(F)cc4)c(CCCCC(=O)O)nc3c2)=NO1 (stereo not shown) [Example 199]		≤ 10 nM
C[C@]1(Cc2ccccc2)CC(c2ccc3c(=O)n(-c4ccc(F)cc4)c(CCCCC(=O)O)nc3c2)=NO1 [Example 26E]		≤ 10 nM
O=C(O)CCCCc1nc2cc(-c3cc(CNS(=O)(=O)c4ccc(Cl)cc4)on3)ccc2c(=O)n1-c1ccc(F)cc1 [Example 24o]		≤ 10 nM
CC1(c2nc3ccccc3o2)CC(c2ccc3c(=O)n(-c4ccc(F)cc4)c(CCCCC(=O)O)nc3c2)=NO1 (single isomer, unassigned) [Example 35, 5-(7-(5-(benzo[d]oxazol-2-yl)-5-methyl-4,5-dihydroisoxazol-3-yl)-3-(4-fluorophenyl)-4-oxo-3,4-dihydroquinazolin-2-yl)pentanoic acid]	≤ 10 nM	
C[C@]1(c2nc3ccc(F)cc3o2)CC(c2ccc3c(=O)n(-c4ccc(F)cc4)c(CCCCC(=O)O)nc3c2)=NO1 [Example 185]		10 to 50 nM
CC(C)(C)OC(=O)NCc1cc(-c2ccc3c(=O)n(-c4ccc(F)cc4)c(CCCCC(=O)O)nc3c2)no1 [Example 24Q]		≤ 10 nM
CC(=O)N1CCC2(CC1)CC(c1ccc3c(=O)n(-c4ccc(Cl)cc4)c(CCCCC(=O)O)nc3c1)=NO2 [Example 15U]		10 to 50 nM
